Experimental findings from paper PMC11985661 (Naunyn-Schmiedeberg's Archives of Pharmacology, 2024) are described below.

Broadly, the IC50 is the concentration that gives 50% inhibition.

One assay has as its system HepG2. In words: MTT cytotoxicity assay. The conditions noted are these: Homo sapiens, read-out: IC50 HepG2. It is filed as cell-based. The method, then: (§1) Numerous cancer cell lines were procured from the American Type Culture Collection (ATCC) situated in Manassas, USA. […] The culture medium was supplemented with penicillin (100 units/mL), streptomycin ([…]), and heat-inactivated fetal bovine serum (10%). The cultivation of these cancer cells was carried out in a humidified atmosphere with 5% (v/v) CO2 at a temperature of 37 °C.
(§2) The 3-[4,5-dimethylthiazole-2-yl]-2,5-diphenyltetrazolium bromide (MTT) assay was used to evaluate the cytotoxicity of different substances or treatments. A commonly used approach for assessing the viability and proliferation of cells, including the cancer cell lines described, is colorimetric analysis.
(§3) Actively proliferating cells from different cancer cell lines were first trypsinized and quantified. […] These seeded cells were incubated in a humidified environment at 37 °C for 24 h to allow for cell attachment and acclimation.
(§4) Following the initial incubation, the cells were subjected to different doses of the chemicals under investigation, ranging from 0.1 to 1000 μM, for a duration of 72 h. The MTT assay was used to evaluate the treated cells’ vitality. Specifically, the culture media were removed, and the cells were incubated with 200 μl of 5% MTT solution per well.
(§5) Due to this, the MTT dye was metabolized by the living cells over the course of 2 h, forming colorful, insoluble formazan crystals.
(§6) This allowed the viable cells to metabolize the MTT dye into colored, insoluble formazan crystals over a 2-h period. After this incubation, the formazan crystals were dissolved in 200 μl of acidified isopropanol per well for 30 min after the residual MTT solution was withdrawn. This dissolution step was carried out at room temperature with a MaxQ 2000 plate shaker, covered with aluminum foil and continuously shaking.
(§7) The absorbance of the dissolved formazan crystals was measured at 570 nm through the use of Stat FaxR 4200 plate reader.
Background: Tetrazolium assays rely on reduction of a dye to a coloured formazan, in cell work by metabolically active cells.

A further assay concerns MCF-7. The assay can be described thus: MTT cytotoxicity assay. The conditions noted are these: Homo sapiens, read-out: IC50 MCF-7. It is filed as cell-based. The method, then:
as §1, §2, §3, §4, §5, §6, §7

A further assay addresses T1, EGFR^T790M (Homo sapiens, UniProt P00533, T790M).
T1 construct: purchased Sigma
In words: EGFR^T790M kinase inhibition assay (HTRF). Type of assay: biochemical. The conditions noted are these: mean of three separate experiments. (In general: Time-resolved FRET reads energy transfer from a long-lived donor to a nearby acceptor.)

The target of another assay is T2, VEGFR-2 (Homo sapiens, UniProt P35968).
T2 construct: purchased Millipore, UK
T2 sequence (P35968 20-1356): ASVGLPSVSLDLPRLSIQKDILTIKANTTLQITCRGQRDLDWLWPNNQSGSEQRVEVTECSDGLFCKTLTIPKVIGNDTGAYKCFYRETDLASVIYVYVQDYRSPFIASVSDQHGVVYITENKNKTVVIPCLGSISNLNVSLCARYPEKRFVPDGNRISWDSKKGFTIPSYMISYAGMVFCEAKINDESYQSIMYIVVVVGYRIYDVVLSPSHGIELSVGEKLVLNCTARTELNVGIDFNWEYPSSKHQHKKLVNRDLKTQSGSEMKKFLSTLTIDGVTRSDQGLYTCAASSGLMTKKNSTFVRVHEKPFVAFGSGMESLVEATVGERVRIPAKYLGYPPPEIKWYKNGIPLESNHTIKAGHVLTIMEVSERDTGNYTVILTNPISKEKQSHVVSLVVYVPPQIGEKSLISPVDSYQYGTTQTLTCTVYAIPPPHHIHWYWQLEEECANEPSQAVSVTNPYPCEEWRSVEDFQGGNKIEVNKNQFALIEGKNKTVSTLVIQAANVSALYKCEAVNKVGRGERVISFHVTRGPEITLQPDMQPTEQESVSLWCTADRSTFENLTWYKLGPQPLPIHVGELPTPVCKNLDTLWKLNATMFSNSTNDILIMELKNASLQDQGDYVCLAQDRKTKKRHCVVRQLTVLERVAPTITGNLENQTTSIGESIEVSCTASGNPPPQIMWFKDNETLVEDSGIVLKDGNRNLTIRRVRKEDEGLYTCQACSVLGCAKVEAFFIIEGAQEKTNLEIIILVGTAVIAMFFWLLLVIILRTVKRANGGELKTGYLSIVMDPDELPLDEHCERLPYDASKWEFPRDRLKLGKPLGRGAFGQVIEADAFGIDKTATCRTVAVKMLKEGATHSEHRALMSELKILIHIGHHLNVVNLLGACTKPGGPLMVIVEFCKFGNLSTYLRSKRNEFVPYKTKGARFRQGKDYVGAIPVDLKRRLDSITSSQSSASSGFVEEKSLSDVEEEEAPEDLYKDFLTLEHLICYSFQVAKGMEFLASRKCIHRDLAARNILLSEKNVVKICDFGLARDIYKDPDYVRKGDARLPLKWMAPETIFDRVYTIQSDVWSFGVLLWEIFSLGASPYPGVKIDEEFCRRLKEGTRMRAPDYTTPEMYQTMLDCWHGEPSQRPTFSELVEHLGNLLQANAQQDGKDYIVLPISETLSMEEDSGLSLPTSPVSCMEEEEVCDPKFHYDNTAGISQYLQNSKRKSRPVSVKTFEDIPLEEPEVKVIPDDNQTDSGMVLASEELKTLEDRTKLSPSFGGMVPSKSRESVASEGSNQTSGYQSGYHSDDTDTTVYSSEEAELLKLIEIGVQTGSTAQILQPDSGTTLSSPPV
In words: In vitro VEGFR-2 kinase assay (Alpha Screen, anti-phosphotyrosine antibody). It is filed as biochemical. As to conditions: mean of three separate experiments.

For the next assay, the system named is A549. The assay can be described thus: MTT cytotoxicity assay. It is filed as cell-based. As to conditions: Homo sapiens, 72 h, mean of three separate experiments. The method, then: as §1, §2, §3, §4, §5, §6, §7
Another assay concerns HCT116. The assay can be described thus: MTT cytotoxicity assay. It is filed as cell-based. The conditions noted are these: Homo sapiens, HCT-116, 72 h, mean of three separate experiments. As for the experimental part:
as §1, §2, §3, §4, §5, §6, §7

Molecules are shown by their SMILES. Like-named read-outs stand apart in the source and are kept apart here.

T1 sequence (P00533 25-1210 T790M): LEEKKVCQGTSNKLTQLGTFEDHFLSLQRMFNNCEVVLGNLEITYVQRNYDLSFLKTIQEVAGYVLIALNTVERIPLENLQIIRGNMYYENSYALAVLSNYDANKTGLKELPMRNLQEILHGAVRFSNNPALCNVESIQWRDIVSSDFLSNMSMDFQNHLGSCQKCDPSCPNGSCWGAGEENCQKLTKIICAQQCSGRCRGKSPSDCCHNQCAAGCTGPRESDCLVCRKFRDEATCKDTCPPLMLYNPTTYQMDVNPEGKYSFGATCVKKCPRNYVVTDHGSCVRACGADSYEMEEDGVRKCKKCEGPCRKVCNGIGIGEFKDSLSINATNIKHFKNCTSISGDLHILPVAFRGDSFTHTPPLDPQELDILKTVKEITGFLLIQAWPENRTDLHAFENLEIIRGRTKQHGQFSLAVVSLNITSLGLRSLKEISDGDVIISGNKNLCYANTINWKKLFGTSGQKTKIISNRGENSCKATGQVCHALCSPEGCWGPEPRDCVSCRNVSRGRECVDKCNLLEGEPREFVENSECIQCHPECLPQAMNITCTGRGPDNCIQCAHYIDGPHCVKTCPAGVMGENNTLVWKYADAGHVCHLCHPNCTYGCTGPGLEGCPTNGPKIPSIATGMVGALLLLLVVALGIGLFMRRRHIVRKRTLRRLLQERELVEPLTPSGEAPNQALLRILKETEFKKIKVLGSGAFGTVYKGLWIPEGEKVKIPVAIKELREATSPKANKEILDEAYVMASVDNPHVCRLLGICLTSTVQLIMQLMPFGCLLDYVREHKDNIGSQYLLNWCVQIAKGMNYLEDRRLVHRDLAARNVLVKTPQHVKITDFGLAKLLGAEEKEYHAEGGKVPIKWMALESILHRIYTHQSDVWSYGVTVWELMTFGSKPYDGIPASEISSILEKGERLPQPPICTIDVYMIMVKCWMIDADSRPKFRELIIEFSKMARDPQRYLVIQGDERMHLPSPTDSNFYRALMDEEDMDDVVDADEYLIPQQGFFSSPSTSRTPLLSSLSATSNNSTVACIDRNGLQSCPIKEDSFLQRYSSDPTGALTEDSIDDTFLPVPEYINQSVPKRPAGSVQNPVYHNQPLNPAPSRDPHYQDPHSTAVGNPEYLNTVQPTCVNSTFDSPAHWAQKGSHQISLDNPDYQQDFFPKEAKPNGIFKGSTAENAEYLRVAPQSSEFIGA
Description for EGFR^T790M: The study utilized the homogeneous time resolved fluorescence (HTRF) assay to evaluate the kinase activity of EGFR^T790M mutant. The EGFR^T790M enzyme and ATP were obtained from Sigma. Initially, the tested chemical was first incubated for 5 min with the EGFR^T790M enzyme and its substrates in an enzymatic buffer. This pre-incubation step allowed the compound to interact with the enzyme before the catalytic reaction was initiated. […] The assay was carried out at room temperature for 30 min. The samples were mixed with detection reagents containing EDTA to stop the enzymatic process. The detection phase was allowed to proceed for 1 h. By utilizing GraphPad Prism 5.0 software, the inhibitory potency of the tested compounds was determined by calculating the half-maximal inhibitory concentration (IC50) values. Three independent measurements were done to determine the concentration of each compound.
Description for VEGFR-2: Analyzing the assay of VEGFR-2 kinase involved utilizing the Alpha Screen system (PerkinElmer, USA) and an anti-phosphotyrosine antibody in accordance with the manufacturer’s protocol. A solution containing 50 mM Tris–HCl (pH 7.5), 5 mM MnCl2, 5 mM MgCl2, 0.01% Tween-20, and 2 mM DTT was used to conduct the enzyme reactions. A total of 10 μM ATP, 0.1 μg/mL of biotinylated poly-GluTyr (in a 4:1 ratio), and 0.1 nM of VEGFR-2 (Millipore, UK) were all added in the reaction mixture.
After an overnight dark incubation, the plate was read using an ELISA Reader (PerkinElmer, USA). The baseline control was represented by wells with biotinylated poly-GluTyr (4:1) and the enzyme but without ATP, and the reaction control was provided by wells with the substrate and the enzyme but not the tested compounds.
The percentage inhibition was computed by comparing contrasting the compound-treated samples with the control incubations.

As to `CNC(=O)c1cc(Oc2ccc(NC(=O)Nc3ccc(Cl)c(C(F)(F)F)c3)cc2)ccn1` [Sorafenib], the half-maximal inhibitory concentration (IC50) in the assay with HepG2 (HepG2, 72 h) stood at 4 µM.
Regarding `C#Cc1cccc(Nc2ncnc3cc(OCCOC)c(OCCOC)cc23)c1` [Erlotinib], the IC50 in the assay on MCF-7 (MCF7, 72 h) came out at 8.2 µM.
Turning to `C[C@@H]1O[C@@H](OC[C@H]2O[C@@H](Oc3c(-c4ccc(O)c(O)c4)oc4cc(O)cc(O)c4c3=O)[C@H](O)[C@@H](O)[C@@H]2O)[C@H](O)[C@H](O)[C@H]1O` [Rutin (3), rutin], the IC50 at EGFR^T790M is 0.66 µM; against VEGFR-2, 1.18 µM; in the assay with A549 it was 8.71 µM; in the assay with MCF-7 (MCF7, MTT, 72 h, mean of three separate experiments), 12.3 µM; in the assay with HepG2 (HepG2, MTT, 72 h, mean of three separate experiments), 14.9 µM; with HCT116, 15.6 µM.
